The record followed here is patent US20240165282A1, “CONFORMATIONAL CONSTRAINED SOMATOSTATIN RECEPTOR 3 PEPTIDE LIGANDS AND THEIR CONJUGATES AND USES THEREOF” (STARGET PHARMA LTD., priority 2021, published 2024).

In data set [1] the test system is insulin release. As to the kind of experiment: Glucose induced insulin release in rats. It is filed as in vivo, Wistar rats. To be noted: S.C. 100-1000 microgram/kg, glucose stimulation. The procedure: (§1) In vivo determination of the pharmacodynamic properties of SSTR3 analogs was carried out in rats, according to known procedures (Afargan M. et al., 2001, Pless J. et al 1986).
(§2) Adult male Wistar rats weighing 200-220 g, were maintained on a constant light-dark cycle (light from 8:00 to 20:00 h), temperature (21±3° C.), and relative humidity (55±10%). Laboratory chow and tap water were available ad libitum. All animals in the study were fasted overnight, animals were placed in cages with metal mesh to prevent coprophagia with free access to water. On the day of the experiment, rats were anesthetized with Nembutal (IP, 60 mg/kg). Ten minutes after anesthesia, drugs were administrated S.C. at 100-1000 microgram/kg dose. At 10 minutes after drugs administration the stimulation of GH and glucagon release were carried out by i.v. bolus administration of 0.5 g/kg L-arginine, stimulation of insulin release was carried out in separate animal groups that received i.v. bolus of 0.5 g/kg of glucose. Terminal blood samples in EDTA were collected at 5 minutes after stimulation. Blood samples were and centrifuged immediately. Plasma was separated and kept frozen at −20° C. until assayed.
Rat growth hormone (rGH), glucagon and insulin levels were determined by commercial ELISA kits using the Millipore ELISA kits (Billerica, MA, USA). The ELISA kit for rat plasma GH, Millipore, Cat. No. EZRMGH-45K was performed according to the validated detection method of colorimetric sandwich ELISA protocol (Supriya S. et al., 2013). The ELISA kit for rat plasma insulin, Millipore Cat. No. MMEZRMI13K (Merck) was performed according to the validated detection method of fluorescent colorimetric protocol (Xu, P.Z. et al., 2012). The ELISA kit for rat plasma glucagon, Millipore, Cat. No. EZGLU-35 was performed according to the validated detection method of chemiluminescent sandwich ELISA protocol (Soyeon Y. et al., 2021).
(§3) Data analysis of rat plasma GH, glucagon and insulin levels was evaluated by the averaged plasma hormones levels of each group. […] Results are expressed as the mean±SEM.

The subject of data set [2] is GH release. As to the kind of experiment: L-arginine induced GH release in rats. The data set is classed as in vivo, Wistar rats. To be noted: S.C. 100-1000 microgram/kg, L-arginine stimulation. The procedure: as §1
Inhibition of GH release as a result of peptide administration was measured in Wistar male rats.
as §2
Rat growth hormone (rGH), glucagon and insulin levels were determined by commercial ELISA kits using the Millipore ELISA kits (Billerica, MA, USA). The ELISA kit for rat plasma GH, Millipore, Cat. No. EZRMGH-45K was performed according to the validated detection method of colorimetric sandwich ELISA protocol (Supriya S. et al., 2013). The ELISA kit for rat plasma insulin, Millipore Cat. No. MMEZRMI13K (Merck) was performed according to the validated detection method of fluorescent colorimetric protocol (Xu, P.Z. et al., 2012). […]
as §3

Data set [3] has as its target SSTR1 (Homo sapiens, UniProt P30872). The data set can be described thus: Radioligand binding, displacement of 125I-Tyr11-SRIF-14. To be noted: hSSTR-1; read-out: IC50. Also noted: host or cells: CHO (Chinese Hamster Ovary) cells, membrane preparation. In a few lines:
(§4)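 Assays ran at 25 °C in 25 mM HEPES pH 7.4 with 5 mM MgCl2, 1 mM CaCl2, 0.1% BSA and 1% DMSO. Filter-bound radioactivity gave IC50 by nonlinear least-squares regression.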
A general note: Displacement assays read how much labelled ligand stays bound in the presence of the test substance.

Data set [4] deals with SSTR3 (Homo sapiens, UniProt P32745). The data set is described as above. Also noted: host or cells: CHO (Chinese Hamster Ovary) cells, membrane preparation. In a few lines: as §4
In data set [5] the target is SSTR2 (Homo sapiens, UniProt P30874). The description is as above. Also noted: host or cells: CHO (Chinese Hamster Ovary) cells, membrane preparation. To be noted: hSSTR-2; read-out: IC50. The procedure, abridged:
as §4

For data set [6], the target named is T1, hSSTR-4 (Homo sapiens, UniProt P31391).
T1 construct: host or cells: Chem-1 (Rat ChemiSCREEN) cells, membrane preparation
Described as above. To be noted: hSSTR-4; read-out: IC50. The procedure, abridged: as §4

For data set [7], the target named is SSTR5 (Homo sapiens, UniProt P35346). Described as above. Also noted: host or cells: Chem-1 (Rat ChemiSCREEN) cells, membrane preparation. To be noted: hSSTR-5; read-out: IC50. In a few lines: as §4
Data set [8] can be described thus: Physicochemical studies of surface activity. To be noted: nonspecific binding.
On the set-up of data set [9]: species or system mice. To be noted: mouse, in vivo, iv. How it is done: As described in Example 1 above, the successful substitution of the arginine with lysine which preserved the high affinity selectivity of SEQ ID NO: 2 to SSTR-3 (as depicted in table 3) can improve this analog as a better candidate for radioligand therapy and diagnostic. SEQ ID NO: 4 and SEQ ID NO: 10 are the gallium labeled analogs of SEQ ID NO: 1 and SEQ ID NO: 2 respectively. Following their radiolabeling the radioligand were injected to anesthetized naïve mice by intravenous administration. The mice were subjected to PET-CT imaging aimed to assess the disposition profiles of the radioligands.

*1 amine or outer side, *2 acyl side, *3 side chain or, on linkers, in order; H or OH if unused. Where a SMILES comes first, the peptide text is derived from it. Bridges are numbered along the chain shown (N, C = ends). Where no end group is shown, it is not given here. [ ]: non-standard residue; d: D form. N(2-mercaptoethyl)Gly = O=C(CN(CCS[*:3])[*:1])[*:2]

Sequence of SSTR3 (P32745 whole entry): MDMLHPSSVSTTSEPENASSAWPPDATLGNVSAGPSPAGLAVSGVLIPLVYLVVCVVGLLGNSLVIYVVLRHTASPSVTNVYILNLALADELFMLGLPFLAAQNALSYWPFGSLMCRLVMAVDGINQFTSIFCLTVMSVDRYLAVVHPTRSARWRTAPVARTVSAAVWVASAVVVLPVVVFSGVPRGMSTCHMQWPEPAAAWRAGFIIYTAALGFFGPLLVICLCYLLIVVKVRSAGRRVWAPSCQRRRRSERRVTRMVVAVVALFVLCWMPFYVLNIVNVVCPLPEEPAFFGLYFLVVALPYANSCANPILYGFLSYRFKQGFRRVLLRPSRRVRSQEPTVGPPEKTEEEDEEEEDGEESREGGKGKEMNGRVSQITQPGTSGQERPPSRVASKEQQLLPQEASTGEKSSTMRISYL
Sequence of SSTR1 (P30872 whole entry): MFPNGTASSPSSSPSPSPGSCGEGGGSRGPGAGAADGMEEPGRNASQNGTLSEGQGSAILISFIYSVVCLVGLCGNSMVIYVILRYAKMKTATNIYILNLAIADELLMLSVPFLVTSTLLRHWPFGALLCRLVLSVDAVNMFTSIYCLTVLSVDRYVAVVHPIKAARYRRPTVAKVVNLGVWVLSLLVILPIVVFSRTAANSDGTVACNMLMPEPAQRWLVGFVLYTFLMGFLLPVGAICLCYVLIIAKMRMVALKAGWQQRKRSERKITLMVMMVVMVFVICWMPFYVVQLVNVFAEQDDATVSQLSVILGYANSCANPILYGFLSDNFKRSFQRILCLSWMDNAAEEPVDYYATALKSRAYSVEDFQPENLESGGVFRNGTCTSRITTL
Sequence of SSTR5 (P35346 whole entry): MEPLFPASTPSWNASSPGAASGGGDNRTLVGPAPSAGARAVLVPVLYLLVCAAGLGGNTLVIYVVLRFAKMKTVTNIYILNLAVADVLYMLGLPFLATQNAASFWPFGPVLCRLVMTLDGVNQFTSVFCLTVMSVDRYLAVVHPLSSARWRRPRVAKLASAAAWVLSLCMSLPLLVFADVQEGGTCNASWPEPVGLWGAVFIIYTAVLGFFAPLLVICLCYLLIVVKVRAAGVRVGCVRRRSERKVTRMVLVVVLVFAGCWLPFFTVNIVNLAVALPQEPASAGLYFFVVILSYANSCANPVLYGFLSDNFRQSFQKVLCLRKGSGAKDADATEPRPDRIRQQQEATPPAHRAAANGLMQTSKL
T1 sequence (P31391 whole entry): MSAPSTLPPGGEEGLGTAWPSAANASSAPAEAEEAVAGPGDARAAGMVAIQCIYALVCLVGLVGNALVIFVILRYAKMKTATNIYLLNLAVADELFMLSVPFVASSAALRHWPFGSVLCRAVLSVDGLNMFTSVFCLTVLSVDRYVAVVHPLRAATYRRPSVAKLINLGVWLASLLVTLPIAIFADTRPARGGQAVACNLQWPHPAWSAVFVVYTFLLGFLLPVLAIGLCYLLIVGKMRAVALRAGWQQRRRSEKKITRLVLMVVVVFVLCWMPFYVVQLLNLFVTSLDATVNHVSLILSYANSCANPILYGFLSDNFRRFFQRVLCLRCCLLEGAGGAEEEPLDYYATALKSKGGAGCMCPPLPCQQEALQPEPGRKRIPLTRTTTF
Sequence of SSTR2 (P30874 whole entry): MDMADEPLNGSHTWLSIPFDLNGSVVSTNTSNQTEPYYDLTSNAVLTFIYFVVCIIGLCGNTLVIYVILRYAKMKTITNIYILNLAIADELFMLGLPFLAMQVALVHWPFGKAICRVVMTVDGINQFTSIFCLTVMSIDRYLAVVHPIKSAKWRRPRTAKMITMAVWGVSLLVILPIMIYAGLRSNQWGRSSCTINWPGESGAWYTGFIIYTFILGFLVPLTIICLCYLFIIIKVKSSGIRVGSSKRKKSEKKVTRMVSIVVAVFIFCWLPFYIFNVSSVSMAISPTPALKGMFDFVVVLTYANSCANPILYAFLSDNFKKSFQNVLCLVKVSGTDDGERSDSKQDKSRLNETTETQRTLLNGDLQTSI

On to `C[C@@H](O)[C@@H]1NC(=O)[C@H](CCCCN)NC(=O)[C@@H](Cc2c[nH]c3ccccc23)NC(=O)[C@H](Cc2ccccc2)NC(=O)[C@@H](NC(=O)[C@H](CCCCN)NC(=O)[C@H](N)Cc2ccccc2)CSSCCN(CC(N)=O)C(=O)[C@H](Cc2ccccc2)NC1=O` [SEQ ID NO: 2, H-D-Phe^1-Lys^2-Cys^3-Phe^4-D-Trp^5-Lys^6-Thr^7-Phe^8-NTEG^9-NH2 (cyclo 3-9)] (H-[dF]KCF[dW]KTF[N(2-mercaptoethyl)Gly]-NH2; disulfide 3-9), for which the “effect on insulin release” value in data set [1] is given as “did not affect insulin release”. Further, in data set [2], the “inhibition of GH release” value is reported as “potent inhibitors of pituitary GH release”. Moreover, the IC50 – broadly, the concentration at which inhibition is half-maximal – in data set [3] was > 100 nM; in data set [4] (hSSTR-3, read-out: IC50), 0.73 nM; in data set [5], > 500 nM; in data set [6] it was > 1000 nM; in [7], > 500 nM. The “affinity and selectivity to SSTR3 (in words)” value in [4] (binding data) was “retained the binding affinity and selectivity to SSTR3”. The “Hill coefficient (nH)” value in data set [4] (hSSTR-3) was found to be 1.09. In [4] (hSSTR-3, Cheng and Prusoff, read-out: Ki), the Ki (commonly a measure of affinity in units of concentration, obtained from inhibition or displacement) stood at 0.25 nM. The surface activity profile result in data set [8] is listed as “favorable surface activity profile by means of reduced nonspecific binding”.

Turning to “radiolabeled SEQ ID NO: 2 ([dF]KCF[dW]KTF[N(2-mercaptoethyl)Gly]-NH2; disulfide 3-9; not fully specified (N-terminus); also: radiolabeled)”, in [9], the “clearance from the kidneys” value is reported as “significantly higher clearance of the peptide from the kidneys in comparison to radiolabeled SEQ ID NO: 1”.
